Laboratory results reported in patent publication US20130244875A1, “METHODS AND COMPOSITIONS FOR IMPROVING PLANT HEALTH” (priority 2006, published 2013).

How the values were obtained:
soybean seeds = experiment: Soybean seed germination in DCSA solution; type: in vivo; set-up: key: 1—low; 2—moderate; 3—high; 3+—exceptionally high; conditions: N=8
Experimental: Rapid seed germination is an important agronomic trait that reduces crop losses due to seed rot especially under cool wet conditions. Soybeans seeds of three varieties were germinated in a solution of 1, 10, or 100 μM DCSA or water at normal temperature (22° C.) or cool temperature (15° C.) and rated for seed germination at 1DAT (1 day after treatment) and 2DAT (2 days after treatment) at 22° C. or 4DAT (days after treatment) at 15° C. The germination rate was scored as 1—low, 2—moderate, 3—high for each treatment, 3+—exceptionally high, N=8.

[1] = tested on: Verticillium (isolate DPL); experiment: Verticillium wilt protection in cotton, isolate DPL; type: in vivo, Verticillium dahliae; conditions: cotton ST6611, DCSA 1 lb/A, glyphosate 0.75 lb/A, 24 hours before inoculation
Excerpt: (§1) DCSA was unexpectedly found to provide protection to cotton plants against Verticillium dahliae, causal agent of cotton wilt disease (Table 6). Cotton plants of the variety ST6611, BOLLGARD 2, ROUNDUP READY FLEX, were inoculated with a moderate isolate (DPL) or a virulent isolate (King) of Verticillium by a seedling dipping method. Seedlings at the first true leaf stage were taken out from the pots, one inch of roots were cut off, seedlings were dipped in a spore slurry for one minute, and then transplanted back in the pots. These strains were isolated and provided by Dr. Terry Wheeler (Texas A&M University, TX USA). DCSA was applied at the rate of 1 lb/A and glyphosate (ROUNDUP WEATHERMAX, Monsanto Company, St. Louis, Mo.) at the rate of 0.75 lb/A 24 hours before inoculation. Protection against Verticillium was measured on a disease severity scale of 1-9:1 being healthy and 9 being dead because of disease, and also was measured as the number of plants that survived out of 10 inoculated plants.

[2] = tested on: Verticillium (isolate King); experiment: Verticillium wilt protection in cotton, isolate King; type: in vivo, Verticillium dahliae; conditions: cotton ST6611, DCSA 1 lb/A, glyphosate 0.75 lb/A, 24 hours before inoculation
Excerpt: as §1

soybean plants [3] = experiment: AMPA induced yellow flash in soybean; type: in vivo; conditions: 8DAT, scale 1-3, surfactant alone 2.7
Experimental: Yellow flash is a symptom sometimes observed in glyphosate tolerant soybeans treated with glyphosate due to the formation of AMPA (aminomethyl phosphonic acid). A study was conducted to determine if DCSA treatment would protect soybean plants from AMPA induced yellow flash symptoms. Soybean plants were grown to V1-2 growth stage and divided into 3 treatment groups, 3 pots of plants per treatment. The treatments were 0.5 lb/A DCSA, 1.0 lb/A DCSA or surfactant alone. One day after treatment, all of the plants were sprayed with 1 lb/A of AMPA (Sigma Aldrich, St. Louis, Mo.) in surfactant. […] In an aspect of the present invention, a tolerance to yellow flash is provided due to improved plant health by DCSA applied to a plant in need of yellow flash tolerance or DCSA produced in vivo by the action of DMO on dicamba in transgenic plants comprising a DMO transgene.

[4] = tested on: Xanthomonas campestris pv. malvacearum; experiment: Bacterial blight inoculation of cotton plants after DCSA spray; type: in vivo; conditions: two-week old cotton; DCSA spray 24 hours before tooth pick inoculation; unsprayed plants developed necrotic spots
Experimental: In this example, two-week old cotton plants were sprayed with DCSA while control plants received spray application of water only. The plants were inoculated with bacterial blight pathogen (Xanthomonas campestris pv. malvacearum) about 24 hours after the DCSA spray application using a tooth pick inoculation method. As shown in the FIG. 4, the cotton plants inoculated with the bacterial pathogen but not sprayed with DCSA developed necrotic spots, typical symptoms of bacterial blight. […] The results of this experiment indicate that DCSA application reduced bacterial infection on cotton plants when inoculated with bacterial pathogen 24 hours after the DCSA spray.

PR5 = experiment: Induction of PR5 (northern blot) by dicamba or DCSA; type: in vivo, soybean; conditions: probe specific to PR5; procedures as for PR2
soybean plants [5] = experiment: Copper injury on soybeans; type: in vivo; conditions: DCSA 0.5 lb/A as tank mix or pretreatment 1 hr or 24 hr before 1000 ppm copper; reduced from 45%
Excerpt: Plants are sensitive to heavy metal toxicity. Heavy metals are present in the environment or sometimes applied to plants for pest control. Symptoms of plant injury following treatment with a heavy metal compound, for example, a compound containing copper, are necrotic leaf spotting and flecking with more severe injury resulting in larger reddish brown spots, […] necrosis and/or necrotic puckered leaves.

What does the source list for O=C(O)c1c(Cl)ccc(Cl)c1O [DCSA, 3,6-dichloro salicylic acid]?
germination rating (soybean seeds; soybean Variety 1, 1 μM DCSA, 1DAT, 22° C.): 1; germination rating (soybean seeds; soybean Variety 1, 1 μM DCSA, 2DAT, 22° C.): 3; germination rating (soybean seeds; soybean Variety 1, 1 μM DCSA, 4 DAT, 15° C.): 1; germination rating (soybean seeds; soybean Variety 1, 10 μM DCSA, 1DAT, 22° C.): 1; germination rating (soybean seeds; soybean Variety 1, 10 μM DCSA, 2DAT, 22° C.): 3; germination rating (soybean seeds; soybean Variety 1, 10 μM DCSA, 4 DAT, 15° C.): 3; germination rating (soybean seeds; soybean Variety 1, 100 μM DCSA, 1DAT, 22° C.): 3; germination rating (soybean seeds; soybean Variety 1, 100 μM DCSA, 2DAT, 22° C.): 3+; germination rating (soybean seeds; soybean Variety 1, 100 μM DCSA, 4 DAT, 15° C.): 3; germination rating (soybean seeds; soybean Variety 2, 1 μM DCSA, 1DAT, 22° C.): 2; germination rating (soybean seeds; soybean Variety 2, 1 μM DCSA, 2DAT, 22° C.): 3; germination rating (soybean seeds; soybean Variety 2, 1 μM DCSA, 4 DAT, 15° C.): 3; germination rating (soybean seeds; soybean Variety 2, 10 μM DCSA, 1DAT, 22° C.): 2; germination rating (soybean seeds; soybean Variety 2, 10 μM DCSA, 2DAT, 22° C.): 3; germination rating (soybean seeds; soybean Variety 2, 10 μM DCSA, 4 DAT, 15° C.): 3; germination rating (soybean seeds; soybean Variety 2, 100 μM DCSA, 1DAT, 22° C.): 3; germination rating (soybean seeds; soybean Variety 2, 100 μM DCSA, 2DAT, 22° C.): 3+; germination rating (soybean seeds; soybean Variety 2, 100 μM DCSA, 4 DAT, 15° C.): 3; germination rating (soybean seeds; soybean Variety 3, 1 μM DCSA, 1DAT, 22° C.): 2; germination rating (soybean seeds; soybean Variety 3, 1 μM DCSA, 2DAT, 22° C.): 2; germination rating (soybean seeds; soybean Variety 3, 1 μM DCSA, 4 DAT, 15° C.): 3; germination rating (soybean seeds; soybean Variety 3, 10 μM DCSA, 1DAT, 22° C.): 2; germination rating (soybean seeds; soybean Variety 3, 10 μM DCSA, 2DAT, 22° C.): 3; germination rating (soybean seeds; soybean Variety 3, 10 μM DCSA, 4 DAT, 15° C.): 2; germination rating (soybean seeds; soybean Variety 3, 100 μM DCSA, 1DAT, 22° C.): 1; germination rating (soybean seeds; soybean Variety 3, 100 μM DCSA, 2DAT, 22° C.): 3; germination rating (soybean seeds; soybean Variety 3, 100 μM DCSA, 4 DAT, 15° C.): 1; Severity rating (1-9) ([1]; 1 healthy, 9 dead, inoculated check 5): 1; Plant survival rating (out of 10) ([1]; inoculated check 8): 10; Severity rating (1-9) ([2]; 1 healthy, 9 dead, inoculated check 9): 2; Plant survival rating (out of 10) ([2]; inoculated check 0): 10; Average symptoms (soybean plants [3]; 0.5 lb/A DCSA one day before 1 lb/A AMPA): 3; Average symptoms (soybean plants [3]; 1.0 lb/A DCSA one day before 1 lb/A AMPA): 1.7; bacterial blight symptoms [4]: only localized lesions (HR response) and no increase in bacterial blight symptoms; induction of PR5 (PR5): Induction of PR5; Soybean injury levels (soybean plants [5]): 24-33%
